Laboratory results: patent US10023615B2, “Efficient transport into white blood cells” (priority 2008, dated 2018)
Square brackets hold non-standard residues; d marks the D form. Ends that are not written are not given here.

What was measured:
TNBS induced colitis = TNBS induced colitis (IBD study); assay type: in vivo
Description: b) Constitution of Test Groups and Dose Levels • The table below lists the experimental groups comprising the study.
c) Test Procedures • Colitis was induced by administration of TNBS dissolved in 50% Ethanol • All animals were then treated with doses of XG-102 in the range of 0.1 to 1000 μg/kg, […], as a single or repeated daily doses (see above).
d) Observations and Examinations • i) Clinical Signs • Throughout the duration of the above experiment, careful clinical examinations were carried out and recorded. Observations included changes external appearance, e.g. of the skin, fur, eyes, mucous membranes, occurrence of secretions and excretions (e.g. diarrhea), and autonomic activity. Changes in gait, posture and response to handling, as well as the presence of bizarre behavior, tremors, convulsions, sleep and coma were also noted. • ii) Body Weights • Determination of individual body weight of animals was made on a daily basis. • iii) Clinical Assessment of Colitis • Body weight, stool consistency and bleeding per rectum were all recorded daily and served as the parameters of disease severity score:
• iv) Gross Pathology of the Colon • On the last day of the experiment, animals were euthanized and the colon was removed for gross pathology evaluation according to the following score: […]

liver and lymph nodes = experiment: FITC-XG-102 and FITC-D-TAT localization in liver and lymph nodes; assay type: in vivo, Sprague Dawley rat; settings: 1 mg/kg i.v., 6 h post-injection
Text: FIG. 22A and FIG. 22B: 22A: FITC-XG-102 (SEQ ID NO: 233) localization in the liver. Three cellular fields of FITC-XG-102-labelled cells isolated from liver. From left to right, FITC-labelled XG-102, corresponding DAPI nuclear stain and merge of both images. […] Typicall Kupfer cell shape and nucleus can be differentiated from hepatocytes by their shape. Small and triangle in Kupfer cells in contrast to big exagonal, well organized hepatocytes. Obj 63; bar, 20 μm. 22B: FITC-D-TAT (SEQ ID NO: 4) localization in the liver. Two cellular fields of FITC-D-TAT-labelled cells isolated from liver. From left to right, FITC-labelled XG-102, corresponding DAPI nuclear stain and merge of both images. […] Typicall Kupfer cell shape and nucleus can be differentiated from hepatocytes by their shape. Small and triangle in Kupfer cells in contrast to big exagonal, well organized hepatocytes. Obj 63; bar, 20 μm.
(§1) FIG. 23A and FIG. 23B: 23A: FITC-XG-102 (SEQ ID NO: 233) localization in lymph nodes. Cellular field of FITC-XG-102-labelled cells isolated from lymph nodes. Upper panels from left to right: the composite image is organized with one cellular field stained with FITC-XG-102 (left), Dapi for nuclear stain (middle) and the corresponding merged image (right). In the lower panels, a zoomed cell cluster of each image is illustrated. […] The absence of FITC staining in the lymphoid follicles allows distinguishing from the medullary corde and cortex area. Medullary zone seems to have incorporated the FITC-XG-102, composed in majority by macrophages. Obj 10; bar, 50 μm.
as §1, with “23B:” for “FIG. 23A and FIG. 23B:”, “FITC-D-TAT” for “23A: FITC-XG-102”, “4)” for “233)”, “FITC-D-TAT-labelled” for “FITC-XG-102-labelled”, “FITC-D-TAT” for “FITC-XG-102”, “FITC-D-TAT,” for “FITC-XG-102,”
Female Sprague Dawley rat was injected i.v. in the tail with either 1 mg/kg of FITC-XG102 (SEQ ID NO:233) or 1 mg/kg FITC-D-TAT (SEQ ID NO:4). Rats were sacrified 6 h post-injection using a lethal dose of sodium pentobarbital (150 mg/kg i.p.). For histological analysis and during narcosis, rats were perfused through the heart with 4% paraformaldehyde (PFA) in PBS. Organs (liver and lymph nodes) were cryoprotected in sucrose (30% in PBS), frozen using liquid isopentane and kept for further cryostat sectioning. Sections of 14 μm were incubated for 5 min in PBS before Hoechst staining for 2 min at RT (1 μg/ml). […]

Lymphocytes T (CD3) = experiment: Flow cytometry of FITC-transporter content in primary human white blood cells: lymphocytes T; assay type: cell-based; settings: 1 uM, 30 min, 37° C.
Text: (§2) Primary human white blood cells (WBC) were obtained from whole blood after red blood cell lysis. […] Cells containing D-TAT-FITC and r3-L-TAT-FITC were finally analysed by flow cytometry to measure their respective transporter content.

Neutrophils (CD15) = experiment: Flow cytometry of FITC-transporter content in primary human white blood cells: neutrophils; assay type: cell-based; settings: 1 uM, 30 min, 37° C.
Text: as §2

Monocytes (CD14) = experiment: Flow cytometry of FITC-transporter content in primary human white blood cells: monocytes; assay type: cell-based; settings: 1 uM, 30 min, 37° C.
Text: as §2

Lymphocytes B (CD19) = experiment: Flow cytometry of FITC-transporter content in primary human white blood cells: lymphocytes B; assay type: cell-based; settings: 1 uM, 30 min, 37° C.
Text: as §2

U937 cells = experiment: Intracellular concentration of transporter constructs subsequent to uptake into U937 cells; assay type: cell-based; settings: U937 cells, 10 μM construct
Description: 9. Determination of Intracellular Concentration of Specific Transporter Constructs Subsequent to Uptake (Internalization) of these Peptides into U937 Cells • According to a further experiment, the concentration of specific transporter constructs subsequent to uptake (internalization) of these peptides into U937 cells were determined.

U937 lymphoma cells = experiment: Uptake (internalization) of FITC-labeled TAT derived transporter constructs in U937 cells, fluorescence plate reader; assay type: cell-based; settings: 10 μM, U937, Lymphoma, 24 h
Description: Cells were plated into poly-DL-lysine coated dishes at a concentration of 1×10^6 cells/ml. Plates were then incubated for 24 h at 37° C., 5% CO2, and 100% relative humidity prior to the addition of a known concentration of peptide. After peptide addition, the cells were incubated 30 min, 1, 6 or 24 h at 37° C., 5% CO2, and 100% relative humidity. Cells were then washed twice with an acidic buffer (Glycin 0.2 M, NaCl 0.15 M, pH 3.0) in order to remove the cell-surface adsorbed peptide (see Kameyama et al., (2007), Biopolymers, 88, 98-107). […] The cell wash using an acidic buffer was thus employed to remove the cell-surface adsorbed peptides. […] Cells were broken by the addition of the RIPA lysis buffer. The relative amount of internalized peptide was then determined by fluorescence after background substraction and protein content normalization. • The steps are thus: 1. […] Analysis of peptide internalization with a fluorescence plate reader • f) Cell Culture and Peptide Treatment • (1) The 6 well culture plates are coated with 3 ml of Poly-D-Lys (Sigma P9011; 25 μg/ml in PBS), the 24 well plates with 600 μl and the 96 well plates with 125 μl and incubated for 4 h at 37° C., CO2 5% and 100% relative humidity. • (2) After 4 hours the dishes were washed twice with 3.5 ml PBS, 700 μl or 150 μl PBS for the 6, 24 or 96 well plates, respectively. • (3) The cells were plated into the dishes in 2.4 ml medium (RPMI) at plating densities of 1′000′000 cells/ml for suspension cells. After inoculation, the plates were incubated at 37° C., 5% CO2 and 100% relative humidity for 24 hours prior to the addition of the peptide. Adherent cells should be at a density of 90-95% the day of treatment and were plated in DMEM :
• (4) The cells were treated with the desired concentration of FITC labeled peptide (stock solution at a concentration of 10 mM in H2O). • (5) Following peptide addition, the cells were incubated 0 to 24 hours (e.g. 30 min, 1, 6 or 24 hours) at 37° C., CO2 5% and 100% relative humidity. • Acidic Wash and Cellular Extracts: • (6) The extracts were cooled on ice. • Suspension cells (or cells, which don attach well to the dish): • Transfer the cells in ? […] To recover the maximum of cells, wash the dish with 1 ml of PBS. • Harvest the cells 2 min at 2400 rpm max. • Suspend the cells in 1 ml cold PBS. • Transfer the cells into a coated “Eppendorf tube” (coated with 1 ml of poly D-Lys for 4 hours and washed twice with 1 ml PBS). • Wash three times with 1 ml of cold acidic wash buffer and centrifuge 2 min at 2400 rpm max. Beware of the spreading of the cells in the “eppendorf”. • Wash twice with 1 ml cold PBS to neutralize. • Add 50 μl of lysis RIPA Buffer. • Incubate 30 min-1 h on ice with agitation. • Adherent Cells: • Wash three times with 3 ml, 1 ml or 200 μl (for 6, 24 or 96 well plates, respectively) of cold acidic wash buffer. Beware of the cells who detach from the dish. • Wash twice with 1 ml cold PBS (for 6, 24 or 96 well plates, respectively) to neutralize. • Add 50 μl of lysis RIPA buffer. • Incubate 30 min-1 h on ice with agitation. • Scrap the cells with a cold scrapper. The 24 and 96 well plates were directly centrifuged at 4000 rpm at 4° for 15 min to remove the cellular debris. Then the supernatants (100 or 50 ml respectively for the 24 or 96 well plates) were directly transferred in a dark 96 well plated.

[1] = test system: HL-60 cell line (Leukemia); experiment: Time dependant internalization of FITC-labeled TAT derived transporter constructs into HL-60 cells; assay type: cell-based; settings: 10 μM; 30 min, 1, 6 or 24 hours
Description: FIG. 3: depicts the results of the time dependant internalization (uptake) of FITC-labeled TAT derived transporter constructs into cells of the HL-60 cell line. […] HL-60 cells were incubated 30 min, 1, 6 or 24 hours with […] of the TAT-derivative transporters. The cells were then washed twice with an acidic buffer (0.2 M Glycin, 0.15 M NaCl, pH 3.0) and twice with PBS. Cells were broken by the addition of RIPA lysis buffer. The relative amount of internalized peptide was then determined by reading the fluorescence intensity (Fusion Alpha plate reader; PerkinElmer) of each extract followed by background substraction and protein content normalization. […]

[2] = test system: dissociated cortical primary neurons; experiment: Confocal microscopy of FITC-labeled TAT derivative transporters in cortical primary neurons; assay type: cell-based, rat; settings: 500 nM, 24 hours
Description: 8.4 Internalization Experiments and Analysis • The time dependant internalization (uptake) of FITC-labeled TAT derived transporter constructs into cells of the HL-60 cell line was carried out with materials and methods as described above. • Briefly, HL-60 cells were incubated 30 min, 1, 6 or 24 hours with 10 μM of the TAT-derivative transporters. The cells were then washed twice with an acidic buffer (0.2 M Glycin, 0.15 M NaCl, pH 3.0) and twice with PBS. Cells were broken by the addition of RIPA lysis buffer. The relative amount of internalized peptide was then determined by reading the fluorescence intensity (Fusion Alpha plate reader; PerkinElmer) of each extract followed by background substraction and protein content normalization. […] The dissociated cortical primary neurons from P2 Sprague Dawley rats were cultured 12 days in neurobasal medium before exposure 24 hours to 500 nM of the FITC-labeled • TAT derivative transporters. The cells were washed five times with PBS on ice and then mounted in fluorsave mounting medium without prior fixation. Acquisitions were performed on LSM510 metaconfocal microscope (Zeiss). Images were processed with LSM510 software and mounted using Adobe photoshop. Visualization by confocal microscopy of labeling with 500 nM FITC-transporters (A: green). Nuclei were stained by Hoechst (B: blue).

O=C(O)c1cc(/N=N/c2ccc(S(=O)(=O)Nc3ccccn3)cc2)ccc1O [Sulfasalazine, reference compound] was tested, and the clinical score (TNBS induced colitis; any dose, route or time schedule (single dose or daily dose)) was “reduction in the clinical score” and the gross pathology score (TNBS induced colitis; end of the study) was “effective in reducing the gross pathology completely”.
“FITC-XG-102: FITC-labelled XG-102 (SEQ ID NO: 233) ([dD][dQ][dS][dR][dP][dV][dQ][dP][dF][dL][dN][dL][dT][dT][dP][dR][dK][dP][dR][dP][dP][dR][dR][dR][dQ][dR][dR][dK][dK][dR]G; not fully specified (N-terminus, C-terminus); also: FITC label, site not given here)” was tested, and the “localization in lymph nodes” value (liver and lymph nodes) was “decorates subcapsular sinus macrophages and constitutive migrating alveolar macrophages” and the “localization in the liver” value (liver and lymph nodes) was “efficiently decorates Kupfer cells in contrast to hepatocytes which only show a background staining level”.
With FITC-βA-rKKRrQRRr [r3-L-TAT-FITC] the “percentage of cells gated, lower left quadrant” value (“percentage … lower left quadrant” below) (Lymphocytes T (CD3)) was 50.36%, the “percentage of cells gated, lower right quadrant” value (Lymphocytes T (CD3)) was 20.04% and the “percentage of cells gated, upper left quadrant” value (“percentage … upper left quadrant” for short) (Lymphocytes T (CD3)) was 20.64%. For the same compound, the “percentage of cells gated, upper right quadrant” value (Lymphocytes T (CD3)) was 8.96%, the “percentage … lower left quadrant” value (Neutrophils (CD15)) was 49.75% and the “percentage of cells gated, lower right quadrant” value (Neutrophils (CD15)) was 24.76%. The “percentage … upper left quadrant” value (Neutrophils (CD15)) was 11.74%, the “percentage of cells gated, upper right quadrant” value (Neutrophils (CD15)) was 13.75% and the “percentage … lower left quadrant” value (Monocytes (CD14)) was 40.77%. For the same compound, the “percentage of cells gated, lower right quadrant” value (Monocytes (CD14)) was 36.24%, the “percentage … upper left quadrant” value (Monocytes (CD14)) was 6.34% and the “percentage of cells gated, upper right quadrant” value (Monocytes (CD14)) was 16.65%. For the same compound, the “percentage … lower left quadrant” value (Lymphocytes B (CD19)) was 61.92%, the “percentage of cells gated, lower right quadrant” value (Lymphocytes B (CD19)) was 8.48% and the “percentage … upper left quadrant” value (Lymphocytes B (CD19)) was 27.83%. For the same compound, the “percentage of cells gated, upper right quadrant” value (Lymphocytes B (CD19)) was 1.76%.
“RKKRRQRRR (Description of sequence trafficking sequence L-TAT (s1a) (see Table 1)) [reference compound]” was tested, and the “intracellular concentration of transporter construct subsequent to uptake” value (from here on “intracellular concentration”) (U937 cells; 2 h) was 1.20, the “intracellular concentration” value (U937 cells; 4 h) was 1.38 and the “intracellular concentration” value (U937 cells; 6 h) was 1.07. The “intracellular concentration” value (U937 cells; 24 h) was 0.5, the “uptake (internalization)” value (U937 lymphoma cells) was “significantly lower uptake” and the “time dependant internalization (uptake)” value [1] was “doesn't accumulate over a period of 24 hours”.
With rRRQrRKKr [r3-L-TATi] the “internalization seen by confocal microscopy” value [2] was “internalized into the cytoplasm of the non stressed neurons”, the “uptake (internalization)” value (U937 lymphoma cells) was “most efficient” and the “time dependant internalization (uptake)” value [1] was “less efficient but still suitable”.
